Test results: the supplement of paper PMC10307832

Key:
Test in all cases: relative viability (nuclei count vs DMSO), 5 days (fraction); higher = more cells survive
[1] = compound: CC(=O)Nc1cccc(-n2c(=O)n(C3CC3)c(=O)c3c(Nc4ccc(I)cc4F)n(C)c(=O)c(C)c32)c1 [Trametinib] + N=C(N)NC(=N)NCCc1ccccc1 [Phenformin] (partner 250 µM)
In short: (§1)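 For relative viability, nuclei counts in treated wells were divided by those in vehicle wells. Lung cancer cell lines had been pin-tool dosed in 1536-well plates the day after seeding and cultured for 5 days, then fixed and stained in one step (final 0.05% Triton X-100, 1% formaldehyde, 1 ug/ml Hoechst) and imaged at 4×. Doses were one drug alone or a fixed anchor-drug dose plus five library-drug doses (not always all listed) in √10 steps, and values are duplicate-plate medians.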

[2] = compound: CN1C=C(C2=CC=CC=C21)/C=C\3/C4=C(C=CC=N4)NC3=O + N=C(N)NC(=N)NCCc1ccccc1 [Phenformin] (partner 250 µM)
In short: as §1

[3] = compound: CC(=O)Nc1cccc(-n2c(=O)n(C3CC3)c(=O)c3c(Nc4ccc(I)cc4F)n(C)c(=O)c(C)c32)c1 [Trametinib] + O=C(c1cc(Cc2n[nH]c(=O)c3ccccc23)ccc1F)N1CCN(C(=O)C2CC2)CC1 [Olaparib] (partner 8 µM)
In short: as §1

[4] = compound: CN1C=C(C2=CC=CC=C21)/C=C\3/C4=C(C=CC=N4)NC3=O + C[C@@H](Oc1cc(-c2cnn(C3CCNCC3)c2)cnc1N)c1c(Cl)ccc(F)c1Cl [Crizotinib] (partner 1 µM)
In short: as §1

Row | Cell Line | relative viability ([1]; first compound 0.0025 µM) | relative viability ([1]; first compound 0.007906 µM) | relative viability ([1]; first compound 0.025 µM) | relative viability ([1]; first compound 0.07906 µM) | relative viability ([1]; first compound 0.25 µM) | relative viability ([2]; first compound 0.02 µM) | relative viability ([2]; first compound 0.06325 µM) | relative viability ([2]; first compound 0.2 µM) | relative viability ([2]; first compound 0.6325 µM) | relative viability ([2]; first compound 2 µM) | relative viability ([3]; first compound 0.0025 µM) | relative viability ([3]; first compound 0.007906 µM) | relative viability ([3]; first compound 0.025 µM) | relative viability ([3]; first compound 0.07906 µM) | relative viability ([3]; first compound 0.25 µM) | relative viability ([4]; first compound 0.02 µM) | relative viability ([4]; first compound 0.06325 µM) | relative viability ([4]; first compound 0.2 µM) | relative viability ([4]; first compound 0.6325 µM) | relative viability ([4]; first compound 2 µM)
1 | HCC-15 | 0.361 | 0.229 | 0.18 | 0.179 | 0.145 | 0.422 | 0.462 | 0.486 | 0.448 | 0.463 | 0.766 | 0.39 | 0.447 | 0.369 | 0.3 | 0.805 | 0.795 | 0.887 | 0.897 | 0.955
2 | NCI-H2087 | 0.294 | 0.258 | 0.146 | 0.153 | 0.111 | 0.488 | 0.431 | 0.387 | 0.453 | 0.369 | 0.463 | 0.379 | 0.249 | 0.123 | 0.18 | 0.96 | 0.701 | 1.1 | 0.889 | 0.868
3 | LCLC-103H | 0.319 | 0.349 | 0.318 | 0.269 | 0.307 | 0.303 | 0.256 | 0.317 | 0.322 | 0.331 | 0.723 | 0.638 | 0.655 | 0.593 | 0.581 | 1.11 | 1.13 | 1.05 | 1.13 | 1.07
4 | NCI-H1650 | 0.388 | 0.538 | 0.495 | 0.325 | 0.151 | 0.401 | 0.451 | 0.362 | 0.345 | 0.397 | 0.852 | 0.735 | 0.638 | 0.568 | 0.332 | 0.908 | 0.889 | 0.856 | 1.06 | 1.05
5 | LK-2 | 0.433 | 0.649 | 0.379 | 0.35 | 0.142 |  |  |  | 0.56 | 0.546 | 0.654 | 0.619 | 0.81 | 0.51 | 0.293 |  | 0.205 | 0.202 | 0.243 | 0.219
6 | ChaGo-K-1 | 0.413 | 0.444 | 0.492 | 0.414 | 0.317 | 0.419 | 0.492 | 0.41 | 0.522 | 0.471 | 0.435 | 0.405 | 0.405 | 0.412 | 0.359 | 1.07 | 1.11 |  | 1.16 | 1.21
7 | HCC-78 | 0.678 | 0.501 | 0.482 | 0.489 | 0.401 | 0.545 | 0.709 |  | 0.525 | 0.614 | 0.774 | 0.642 | 0.82 | 0.808 | 0.557 | 0.335 | 0.26 | 0.326 | 0.337 | 0.372
8 | NCI-H1666 | 0.526 | 0.574 | 0.6 | 0.57 | 0.513 | 0.57 | 0.527 | 0.481 | 0.577 | 0.494 | 0.735 | 0.699 | 0.706 | 0.755 | 0.726 | 0.847 | 0.822 | 0.704 | 1.17 | 0.927
9 | EKVX | 0.234 | 0.209 | 0.198 | 0.192 | 0.24 | 0.206 | 0.227 | 0.226 | 0.201 | 0.236 | 0.795 | 0.66 | 0.61 | 0.472 | 0.316 | 0.835 | 0.927 | 0.913 | 0.792 | 0.876
10 | COR-L 105 | 0.421 | 0.354 | 0.293 | 0.277 | 0.213 | 0.518 | 0.444 | 0.496 | 0.489 | 0.486 | 0.738 | 0.76 | 0.498 | 0.466 | 0.417 | 0.655 | 0.515 | 0.637 | 0.849 | 0.885
11 | NCI-H322M | 0.679 | 0.577 | 0.525 | 0.501 | 0.43 | 0.689 | 0.769 | 0.642 | 0.838 | 0.777 | 0.652 | 0.631 | 0.689 | 0.518 | 0.595 | 0.827 | 0.841 | 0.876 | 0.902 | 0.933
12 | HARA | 0.399 | 0.426 | 0.386 | 0.373 | 0.214 | 0.407 | 0.412 |  | 0.34 | 0.431 | 0.696 | 0.832 | 0.664 | 0.449 | 0.308 | 0.975 | 0.958 | 0.933 | 1.02 | 1.09
13 | NCI-H2023 | 0.34 | 0.393 | 0.349 | 0.289 | 0.167 | 0.395 | 0.376 | 0.361 | 0.409 | 0.418 | 0.492 | 0.448 | 0.419 | 0.447 | 0.294 | 0.647 | 0.543 | 0.606 | 0.62 | 0.694
14 | NCI-H1437 | 0.258 | 0.205 | 0.23 | 0.201 | 0.206 | 0.307 | 0.325 | 0.231 | 0.28 | 0.267 | 0.601 | 0.518 | 0.446 | 0.422 | 0.443 | 0.878 | 0.898 | 0.989 | 0.915 | 1.14
15 | BEN | 0.264 | 0.258 | 0.247 | 0.278 | 0.275 | 0.264 | 0.29 |  | 0.255 | 0.242 | 1.15 | 1.04 | 0.995 | 1.01 | 1.02 | 0.896 | 0.807 | 0.761 | 0.779 | 0.956
16 | LXF-289 | 0.503 | 0.451 | 0.444 | 0.422 | 0.263 | 0.478 | 0.515 | 0.467 | 0.551 | 0.522 | 1.01 | 0.906 | 0.803 | 0.756 | 0.665 | 0.775 | 0.785 | 0.881 | 0.849 | 0.895
17 | NCI-H358 | 0.201 | 0.189 | 0.146 | 0.124 | 0.121 | 0.301 | 0.316 | 0.311 | 0.4 | 0.4 | 0.47 | 0.303 | 0.186 | 0.185 | 0.127 | 0.56 | 0.497 | 0.606 | 0.601 | 0.633
18 | A549 | 0.166 | 0.153 | 0.125 | 0.116 | 0.058 | 0.16 | 0.101 | 0.181 | 0.114 | 0.183 | 0.29 | 0.27 | 0.14 | 0.211 | 0.0478 | 0.631 | 0.755 | 0.724 | 0.828 | 0.75
19 | NCI-H1993 | 0.538 | 0.536 | 0.558 | 0.554 | 0.56 | 0.544 | 0.432 | 0.431 | 0.55 | 0.509 | 0.961 | 0.834 | 0.789 | 0.542 | 0.537 | 0.726 | 0.816 | 0.741 | 0.868 | 0.87
20 | NCI-H727 | 0.32 | 0.359 | 0.406 | 0.257 | 0.264 | 0.414 | 0.448 | 0.442 | 0.586 | 0.528 | 0.714 | 0.617 | 0.565 | 0.363 | 0.398 | 0.835 | 0.614 | 0.691 | 0.81 | 0.808
21 | LOU-NH91 | 0.685 | 0.752 | 0.661 | 0.364 | 0.294 | 0.727 | 0.624 | 0.623 | 0.66 | 0.645 | 0.893 | 0.829 | 0.849 | 0.809 | 0.483 | 0.74 | 0.649 | 0.672 | 0.709 | 0.724
22 | NCI-H1975 | 0.386 | 0.308 | 0.291 | 0.234 | 0.124 | 0.392 | 0.378 | 0.318 | 0.389 | 0.402 | 0.816 | 0.633 | 0.566 | 0.376 | 0.322 | 0.749 | 0.939 | 0.915 | 0.817 | 0.796
23 | PC-3 [JPC-3] | 0.46 | 0.463 | 0.427 | 0.405 | 0.373 | 0.472 | 0.44 | 0.434 | 0.425 | 0.497 | 1.12 | 0.927 | 0.982 |  | 0.699 | 0.878 | 0.949 | 0.954 | 0.96 | 0.966
24 | NCI-H2126 | 0.501 | 0.464 | 0.419 | 0.481 | 0.466 | 0.506 | 0.508 | 0.507 | 0.519 | 0.505 | 0.801 | 0.822 | 0.742 | 0.753 | 0.615 | 0.994 | 1 | 1.06 | 1.03 | 1.02
25 | LU99A | 0.895 | 0.812 | 0.642 | 0.588 | 0.455 | 0.874 | 0.846 | 0.695 | 0.602 | 0.8 | 0.292 | 0.277 | 0.261 | 0.263 | 0.247 | 0.522 | 0.479 | 0.607 | 0.568 | 0.603
26 | NCI-H23 | 0.782 | 0.738 | 0.312 | 0.583 | 0.303 | 0.829 | 0.77 | 0.693 | 0.718 | 0.797 | 0.287 | 0.269 | 0.269 | 0.239 | 0.147 | 0.453 | 0.504 |  | 0.62 | 0.624
27 | PC-14 | 0.568 | 0.531 | 0.322 | 0.212 | 0.102 | 0.54 | 0.482 |  | 0.575 | 0.447 | 0.282 | 0.225 | 0.216 | 0.222 | 0.106 | 0.91 | 0.791 | 1 | 0.856 | 0.958
